Among the test systems are KM12 colon; LOX IMVI melanoma; MDA-MB-435; OVCAR-3 ovarian; OVCAR-8 ovarian; SR leukemia; UACC-62 melanoma; SNB-75 CNS.
Common to all, as to test: NCI anticancer screen, dose series, 48 h

Each structure is given as a SMILES string.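 How tested: cells in 96-well plates exposed to compound for 48 hours at five concentrations. GI50 is the concentration that inhibits growth by half. TGI is the concentration that stops growth completely.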

The values below come from PubChem BioAssay (NCI).

For `COc1ccc2cc(-c3cnc4nonc4n3)ccc2c1`, the GI50 with KM12 colon was 2.03 µM; with LOX IMVI melanoma, 1.88 µM; with MDA-MB-435, 1 µM; in the test with OVCAR-3 ovarian, 0.982 µM; in the test on OVCAR-8 ovarian, 2.54 µM; in the test on SR leukemia it was 0.423 µM. For the same compound, the GI50 with UACC-62 melanoma is 2.32 µM. Further, the TGI was more than 100 µM in the test on KM12 colon; more than 100 µM with LOX IMVI melanoma; 3.35 µM in the test on MDA-MB-435; 56.9 µM with OVCAR-3 ovarian; more than 100 µM in the test with OVCAR-8 ovarian; more than 100 µM in the test with SR leukemia. This compound also yielded a TGI in the test with UACC-62 melanoma of more than 100 µM.

`COc1ccc(NC(=O)Oc2ccc3c(C)cc(=O)oc3c2)c(OC)c1` (tested in a mixture with another compound): the TGI with KM12 colon, with MDA-MB-435, in the test with OVCAR-3 ovarian, in the test on OVCAR-8 ovarian and in the test on UACC-62 melanoma was more than 100 µM throughout.

In the case of `CSc1cc([C@@H]2C[C@H]2c2ccc(Cl)cc2)on1`, the GI50 is 14.5 µM in the test on KM12 colon; 3.99 µM with LOX IMVI melanoma; 16.8 µM with MDA-MB-435; 15.4 µM in the test on OVCAR-3 ovarian; 12.3 µM with OVCAR-8 ovarian; 21.3 µM in the test on SNB-75 CNS. Moreover, the GI50 in the test with UACC-62 melanoma is 11.3 µM. Further, the TGI in the test with KM12 colon came to 30.3 µM; in the test on LOX IMVI melanoma, 19.9 µM; in the test with MDA-MB-435, 45.1 µM; in the test with OVCAR-3 ovarian it was 33.4 µM; with OVCAR-8 ovarian, 46.1 µM; in the test with SNB-75 CNS, 49.5 µM. This compound also had a TGI in the test with UACC-62 melanoma of 24.7 µM.

As to `COc1ccccc1C#Cc1ccccc1C#Cc1ccc(OCCCCCCOc2ccccc2C#Cc2ccccc2C#Cc2ccccc2OC)cc1`, the GI50 in the test with KM12 colon, in the test with LOX IMVI melanoma, in the test on MDA-MB-435, with OVCAR-3 ovarian, with OVCAR-8 ovarian and in the test on SNB-75 CNS was more than 100 µM throughout. In the test on UACC-62 melanoma, the GI50 was more than 100 µM. In addition, the TGI in the test on KM12 colon, in the test on LOX IMVI melanoma, in the test with MDA-MB-435, with OVCAR-3 ovarian, in the test on OVCAR-8 ovarian and in the test on SNB-75 CNS was more than 100 µM each time. The TGI in the test with UACC-62 melanoma is more than 100 µM.

For `C=C(C)[C@@H]1CC[C@]2(CO)CC[C@]3(C)[C@H](CC[C@@H]4[C@@]5(C)CCCNC(C)(C)[C@@H]5CC[C@]43C)[C@@H]12`, the GI50 with KM12 colon is 1.73 µM; in the test on OVCAR-3 ovarian, 1.66 µM; with OVCAR-8 ovarian it was 1.83 µM; with SNB-75 CNS, 1.54 µM; in the test with UACC-62 melanoma, 1.82 µM. In addition, the TGI was 3.24 µM with KM12 colon; 3.13 µM in the test on OVCAR-3 ovarian; 3.51 µM in the test on OVCAR-8 ovarian; 2.91 µM in the test with SNB-75 CNS; 3.25 µM in the test on UACC-62 melanoma.

Turning to `CC1=C([Te]c2ccccc2)C(=O)c2ccccc2C1=O`, the GI50 in the test on KM12 colon is 0.337 µM; in the test on LOX IMVI melanoma it was 0.311 µM; with MDA-MB-435, 1.8 µM; with OVCAR-3 ovarian it was 1.04 µM; in the test on OVCAR-8 ovarian, 0.374 µM; in the test with SNB-75 CNS, 0.207 µM. Moreover, the GI50 in the test on UACC-62 melanoma is 1.43 µM. For the same compound, the TGI stood at 1.21 µM with KM12 colon; 1.49 µM in the test with LOX IMVI melanoma; 4.02 µM in the test with MDA-MB-435; 2.23 µM in the test on OVCAR-3 ovarian; 4.35 µM in the test with OVCAR-8 ovarian; 0.898 µM in the test with SNB-75 CNS. Further, the TGI in the test with UACC-62 melanoma is 3.8 µM.

Turning to `O=c1cc(-c2ccc(F)cc2)[nH]c2ncccc12`, the TGI was more than 100 µM in the test with KM12 colon; more than 100 µM in the test with LOX IMVI melanoma; 33 µM in the test on MDA-MB-435; more than 100 µM in the test with OVCAR-3 ovarian; more than 100 µM in the test on OVCAR-8 ovarian; 81.1 µM with SNB-75 CNS. In the test on UACC-62 melanoma, the TGI is more than 100 µM. In addition, the GI50 in the test with MDA-MB-435 is 12 µM; in the test with OVCAR-3 ovarian, 45.5 µM.

For the compound `O=C(O)/C=C/c1ccc(Oc2ccccc2C(=O)O)o1`, the TGI with KM12 colon, with LOX IMVI melanoma, in the test on MDA-MB-435, in the test with OVCAR-8 ovarian, with SNB-75 CNS and in the test with SR leukemia was more than 10 µM each time. For the same compound, the TGI with UACC-62 melanoma is more than 10 µM.

With `Fc1cccc(COc2ccc(Nc3ncnc4onc(-c5ccccc5)c34)cc2)c1`, the GI50 was 0.173 µM in the test on KM12 colon; 0.125 µM with LOX IMVI melanoma; 0.252 µM in the test with OVCAR-3 ovarian; 0.262 µM with OVCAR-8 ovarian; less than 0.0162 µM in the test on SNB-75 CNS; 0.0884 µM in the test with SR leukemia. Further, the GI50 in the test with UACC-62 melanoma was 0.496 µM. Also, the TGI in the test with KM12 colon was more than 38.4 µM; in the test with LOX IMVI melanoma, more than 100 µM; in the test on OVCAR-3 ovarian it was 2.19 µM; with OVCAR-8 ovarian it was more than 100 µM; in the test with SNB-75 CNS, 0.155 µM; in the test on SR leukemia, more than 100 µM. Further, the TGI with UACC-62 melanoma was more than 64.4 µM.

For `Cc1cc(OCc2nnc3n2S(=O)(=O)c2ccccc2N3C)ccc1Cl`, the TGI in the test with KM12 colon is more than 100 µM; in the test with LOX IMVI melanoma, more than 100 µM; in the test with MDA-MB-435, more than 100 µM; in the test with OVCAR-3 ovarian, 57.2 µM; in the test with OVCAR-8 ovarian it was more than 100 µM; with UACC-62 melanoma it was 52.9 µM.

Take `NC(=S)N/N=C/c1ccc(OC(=O)COc2cc(Cl)c(Cl)cc2Cl)cn1`: the GI50 was 5.68 µM with KM12 colon; 3.09 µM with LOX IMVI melanoma; 6.68 µM in the test on MDA-MB-435; 3.39 µM in the test on OVCAR-3 ovarian; 2.26 µM in the test on OVCAR-8 ovarian; 4.7 µM in the test with SR leukemia. The GI50 in the test on UACC-62 melanoma is 3.46 µM. Also, the TGI in the test on KM12 colon is more than 100 µM; in the test with LOX IMVI melanoma, 26.6 µM; with MDA-MB-435, more than 100 µM; in the test with OVCAR-3 ovarian it was 58.2 µM; with OVCAR-8 ovarian, more than 100 µM; in the test on SR leukemia, more than 100 µM. The compound further had a TGI in the test with UACC-62 melanoma of 22.4 µM.

With `COc1ccc2c(c1)c(-c1nc(-c3cn(C)c4ccncc34)cs1)cn2C`, the GI50 in the test with KM12 colon is 1.84 µM; with MDA-MB-435 it was 1.59 µM; in the test with OVCAR-3 ovarian it was 1.99 µM; in the test with SNB-75 CNS, 14.7 µM; in the test with UACC-62 melanoma, 2.09 µM. For the same compound, the TGI in the test with KM12 colon came to 3.41 µM; in the test on MDA-MB-435, 2.97 µM; in the test on OVCAR-3 ovarian it was 3.77 µM; with SNB-75 CNS, 28 µM; with UACC-62 melanoma it was 4.78 µM.
